Experimental findings from US20200360537A1, “A GANGLIOGLIOMA-INDUCED ANIMAL MODEL AND A METHOD FOR DIAGNOSING AND TREATING GANGLIOGLIOMA AND RELATED DISEASES” (KOREA ADVANCED INSTITUTE OF SCIENCE AND TECHNOLOGY, priority 2017, published 2020) are described below.

For this assay, the system named is BRAF V600E mutant mice. Briefly: Seizure reduction by BRAF V600E specific inhibitor in BRAF V600E mutant mice (video-EEG brainwave monitoring). Format: in vivo, mouse.

Turning to `CCCS(=O)(=O)Nc1ccc(F)c(C(=O)c2c[nH]c3ncc(-c4ccc(Cl)cc4)cc23)c1F` [BRAF V600E specific inhibitor, Vemurafenib], the seizure frequency entry (acute intracerebroventricular injection (3 times/day, 5 uL injection for 8 minutes), FIG. 17 left) is listed as “not reduced” and the seizure frequency entry (oral administration (PO, per oral), FIG. 17 right) is on record as “not reduced”. Further, for the setting “cICV treatment for 6 weeks, FIG. 15 C”, the “seizures over time (electrophysiologically confirmed)” value is recorded as “continuously reduced”. Besides, under “chronic intracranioventricular injection (cICV), 500 um PLX4032 via osmotic pump, vs vehicle, FIG. 15 B”, the “reduction of icta (ictal) seizures” value is listed as “about 4 times”.
